According to US20190175528A1, “INHIBITION OF BIOFILM ORGANISMS” (NovaBiotics Limited, priority 2009, published 2019):
Numbered stars: 1 amine (or outer) side, 2 acyl side, 3 side chain; on linkers, the order of the positions; unused ones are H or OH. Ends that are not written are not given here. Peptide text beside a SMILES is read from it. Cysteamide = C(CS[*:3])N[*:1]

Key:
S. epidermidis ATCC12228 [1] = type: cell-based, Staphylococcus epidermidis; conditions: ATCC12228, 24 h
Procedure: (§1) The bacterial inoculum was established by the dilution method from actively-growing cultures in Mueller-Hinton broth, standardized with 0.5 McFarland turbidity standard as described in the CLSI method M26-A.
(§2) To determine the prevention of biofilm formation, both the bacterial inoculum and the antimicrobial agents were added simultaneously to the plates. The plates were incubated at 37° C. for 24 h and the optical density was read at 625 nm on a microtitre plate reader (BioTek Powerwave XS, Winooski, USA). The MIC was obtained as the lowest concentration of antimicrobial showing total inhibition of bacterial growth.

S. aureus ATCC25923 [2] = type: cell-based, Staphylococcus aureus; conditions: ATCC25923, 24 h
Procedure: as §1, §2

[3] = system: S. aureus DSM 11729 (MRSA); assay: microbe, parasite or virus in culture; type: cell-based, Staphylococcus aureus; conditions: DSM 11729, 24 h; for MIC pH5.5, 320 mM NaCl, S. aureus 11729 / MIC pH5.5, S. aureus 11729: pH 5.5
Procedure: as §1
as §2, with “growth. […]” for “growth.”
(§3) FIC=MICA[combination]/MICA[alone]+MICB[combination]/MICB[alone] […]
(§4) In order to assess for the prevention of biofilm formation by both Gram-positive and Gram-negative bacteria, the bacterial inoculum and antimicrobial agents were added simultaneously in the plates. The range of concentrations of antimicrobial agents was 0-500 μg/ml NP108 and 0-320 μg/ml cysteamine against the Gram-negative bacteria P. aeruginosa ATCC BAA-47 and 0-1000 μg/ml NP108 and 0-320 μg/ml cysteamine against the Gram-positive MRSA.

P. aeruginosa DSMZ1128 [4] = type: cell-based, Pseudomonas aeruginosa; conditions: DSMZ1128, 24 h
Procedure: as §1, §2

P. aeruginosa DSMZ1299 [5] = type: cell-based, Pseudomonas aeruginosa; conditions: DSMZ1299, 24 h, pH 7
Procedure: as §1, §2

[6] = system: P. aeruginosa ATCC BAA-47; assay: microbe, parasite or virus in culture; type: cell-based, Pseudomonas aeruginosa; conditions: ATCC BAA-47, 24 h; for MIC pH5.5, 320 mM NaCl, P. aeruginosa ATCCBAA-47 / MIC pH5.5, P. aeruginosa ATCCBAA-47: pH 5.5
Procedure: as §1
as §2, with “growth. […]” for “growth.”
as §3, §4

S. epidermidis ATCC12228 [7] = conditions: ATCC12228, pH 7
S. aureus ATCC25923 [8] = conditions: ATCC25923, pH 7
[9] = system: S. aureus DSM 11729 (MRSA); conditions: for MBC at pH5.5, S. aureus 11729 / MBC pH5.5, 320 mM NaCl, S. aureus 11729: DSM 11729, pH 5.5; for MBC following MIC at pH 7, S. aureus DSMZ11729: DSM 11729, pH 7
P. aeruginosa DSMZ1128 [10] = conditions: DSMZ1128, pH 7
P. aeruginosa DSMZ1299 [11] = conditions: DSMZ1299, pH 7
[12] = system: P. aeruginosa ATCC BAA-47; conditions: for MBC at pH5.5, P. aeruginosa ATCCBAA-47 / MBC pH5.5, 320 mM NaCl, P. aeruginosa ATCCBAA-47: ATCC BAA-47, pH 5.5; for MBC following MIC at pH 7, P. aeruginosa ATCCBAA-47: ATCC BAA-47, pH 7

Row | Molecule | MIC at pH 7, S. epidermidis ATCC12228 (S. epidermidis ATCC12228 [1]) | MIC at pH 7, S. aureus ATCC25923 (S. aureus ATCC25923 [2]) | MIC pH5.5, 320 mM NaCl, S. aureus 11729 [3] | MIC pH5.5, S. aureus 11729 [3] | MIC at pH 7, S. aureus DSMZ11729 [3] | MIC at pH 7, P. aeruginosa DSMZ1128 (P. aeruginosa DSMZ1128 [4]) | MIC at pH 7, P. aeruginosa D5MZ1299 (P. aeruginosa DSMZ1299 [5]) | MIC pH5.5, 320 mM NaCl, P. aeruginosa ATCCBAA-47 [6] | MIC pH5.5, P. aeruginosa ATCCBAA-47 [6] | MIC at pH 7, P. aeruginosa ATCCBAA-47 [6] | MBC following MIC at pH 7, S. epidermidis ATCC12228 (S. epidermidis ATCC12228 [7]) | MBC following MIC at pH 7, S. aureus ATCC25923 (S. aureus ATCC25923 [8]) | MBC at pH5.5, S. aureus 11729 [9] | MBC pH5.5, 320 mM NaCl, S. aureus 11729 [9] | MBC following MIC at pH 7, S. aureus DSMZ11729 [9] | MBC following MIC at pH 7, P. aeruginosa DSMZ1128 (P. aeruginosa DSMZ1128 [10]) | MBC following MIC at pH 7, P. aeruginosa DSMZ1299 (P. aeruginosa DSMZ1299 [11]) | MBC at pH5.5, P. aeruginosa ATCCBAA-47 [12] | MBC pH5.5, 320 mM NaCl, P. aeruginosa ATCCBAA-47 [12] | MBC following MIC at pH 7, P. aeruginosa ATCCBAA-47 [12]
1 | HHHFRFFFRFRRR [NP438, HHHFRFFFRFRRR] | <7.8 μg/ml | >500 μg/ml | >500 μg/ml | >500 μg/ml | >500 μg/ml | >500 μg/ml | 500 μg/ml | 62.5 μg/ml | 125 μg/ml | >500 μg/ml | 125 μg/ml | >500 μg/ml | >500 μg/ml | >500 μg/ml | >500 μg/ml | >500 μg/ml | >500 μg/ml | >500 μg/ml | >500 μg/ml | >500 μg/ml
2 | N=C(N)NCCC[C@H](NC(=O)[C@H](CCCCN)NC(=O)[C@@H]1CCCN1C(=O)[C@H](CCCNC(=N)N)NC(=O)[C@H](CCCNC(=N)N)NC(=O)[C@@H]1CCCN1C(=O)[C@H](CCCCN)NC(=O)[C@H](CCCNC(=N)N)NC(=O)[C@H](CCCNC(=N)N)NC(=O)[C@@H]1CCCN1C(=O)[C@H](CCCCN)NC(=O)[C@@H](N)CCCCN)C(=O)N[C@@H](CCCCN)C(=O)N[C@@H](CCCCN)C(=O)NCCS [NP449, KKPRRKPRRPKRKK-cysteamine] (H-KKPRRKPRRPKRKK-Cysteamide; N-terminus assumed) | 31.25 μg/ml | 250 μg/ml | >500 μg/ml | >500 μg/ml | 125 μg/ml | 250 μg/ml | 125 μg/ml | >500 μg/ml | >500 μg/ml | 250 μg/ml | 125 μg/ml | >500 μg/ml | >500 μg/ml | >500 μg/ml | 250 μg/ml | 500 (2) μg/ml | 250 (2) μg/ml | >500 μg/ml | >500 μg/ml | >500 μg/ml
